This passage reports TGI and GI50 results from PubChem BioAssay (NCI).

Test systems include DMS 273 small cell lung; RXF-631 renal; LXFL 529 NSCLC; DLD-1 colon; XF 498 CNS; SNB-78 CNS.
What all share (assay): growth of human tumour cells (NCI), 48 h

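These data come from cells grown in 96-well plates and exposed to compound for 48 hours at five concentrations. The concentration for 50% growth inhibition is given as GI50. TGI is the concentration that stops growth completely.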

Consider `Nc1nc(=O)n(CC(O)CO)s1` (stereo unspecified), for which the TGI in the test with DMS 273 small cell lung, with RXF-631 renal, with LXFL 529 NSCLC and in the test on DLD-1 colon was over 100 µM in each case.

Take `N#C[S-].[Ce+3].c1cnc2c(c1)ccc1cccnc12.c1cnc2c(c1)ccc1cccnc12.c1cnc2c(c1)ccc1cccnc12`: in the test with XF 498 CNS, the GI50 was 3.27 µM and the TGI stood at 8.95 µM. Further, in the test on LXFL 529 NSCLC, the GI50 is 2300 nM and the TGI turned out to be 24.6 µM.

As for `O=C(NNC(=O)c1nsc2ccccc12)c1ccc(Cl)cc1`, the TGI with DMS 273 small cell lung came to 25.1 µM; in the test with SNB-78 CNS, 61.7 µM; in the test with LXFL 529 NSCLC it was 39.8 µM.

For the compound `O=S(O)c1cc(Cl)cc(Cl)c1OCc1ccccc1`, the TGI in the test on RXF-631 renal, in the test with XF 498 CNS, in the test on SNB-78 CNS, with LXFL 529 NSCLC and in the test with DLD-1 colon was over 100 µM in each case.
